Tests used:
[1] = test system: NOMO1; experiment: AUC of viability dose-response curve (% viability x log10 dose units); higher = less sensitive; conditions: 48 h
How it was run: (§1)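 Area under the curve was integrated by trapezoidal rule from a log-logistic fit of normalised viability, with curves exceeding full viability scaled and quality-control failures removed. The fit had four parameters over log10 doses. Viability came from CellTiter-Glo One luminescence, normalised per plate to DMSO and cell-free wells, after leukemia cells adapted to each medium (500 or 1000 cells/well, 1536-well plates) were exposed to library compounds in DMSO for 48 h at 37°C. The 11 threefold doses ran from 47 μM to 0.79 nM.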

[2] = test system: SEM cells; experiment: as above; conditions: 48 h
How it was run: as §1

[3] = test system: P12-Ichikawa; experiment: as above; conditions: 48 h
How it was run: as §1

[4] = test system: SEM cells; experiment: cell viability relative to DMSO control; higher = less cytotoxic; conditions: HPLM + 10% dialyzed FBS, 48 h
How it was run: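 Viability is expressed as a percentage of DMSO wells within each plate, and cell-free wells serve as background. Seeding densities in the 1536-well plates (5 μl) were 500 cells/well for NOMO1 or SEM leukemia cells and 1000 cells/well for P12-Ichikawa. Each line was adapted for at least four passages in each medium. Library compounds in DMSO were pin-dosed at 47 μM to 0.79 nM (11 points, threefold), and CellTiter-Glo One luminescence was read after 48 h at 37°C.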

[5] = RPMI 5 mM glucose + 10% dialyzed FBS

With `ClC/1=C(NCCN2CCOCC2)/C(=O)C3=C(C=CC=N3)C1=O` the “AUC of viability dose-response curve” value ([1]; HPLM + 10% dialyzed FBS) was 416, the “AUC of viability dose-response curve” value ([1]; RPMI 5 mM glucose + 10% FBS) was 410 and the “AUC of viability dose-response curve” value [1, 5] was 406. The “AUC of viability dose-response curve” value ([2]; HPLM + 10% dialyzed FBS) was 410, the “AUC of viability dose-response curve” value ([2]; RPMI 5 mM glucose + 10% FBS) was 381 and the “AUC of viability dose-response curve” value [2, 5] was 392. For the same compound, the “AUC of viability dose-response curve” value ([3]; HPLM + 10% dialyzed FBS) was 450, the “AUC of viability dose-response curve” value ([3]; RPMI 5 mM glucose + 10% FBS) was 445 and the “AUC of viability dose-response curve” value [3, 5] was 438. The cell viability ([4]; 0.000781 µM) was 104%, the cell viability ([4]; 0.00234 µM) was 105% and the cell viability ([4]; 0.00702 µM) was 121%. For the same compound, the cell viability ([4]; 0.0211 µM) was 118%, the cell viability ([4]; 0.0632 µM) was 131% and the cell viability ([4]; 0.19 µM) was 127%. It also gave a cell viability ([4]; 0.569 µM) of 127%, a cell viability ([4]; 1.71 µM) of 115% and a cell viability ([4]; 5.12 µM) of 95.4%. The cell viability ([4]; 15.4 µM) was 35.8% and the cell viability ([4]; 46.1 µM) was 4.66%.
`Cc1cnc(Nc2ccc(F)cc2Cl)nc1-c1c[nH]c(C(=O)N[C@H](CO)c2cccc(Cl)c2)c1` was tested, and the “AUC of viability dose-response curve” value ([1]; HPLM + 10% dialyzed FBS) was 353, the “AUC of viability dose-response curve” value ([1]; RPMI 5 mM glucose + 10% FBS) was 335 and the “AUC of viability dose-response curve” value [1, 5] was 364. The “AUC of viability dose-response curve” value ([2]; HPLM + 10% dialyzed FBS) was 467, the “AUC of viability dose-response curve” value ([2]; RPMI 5 mM glucose + 10% FBS) was 452 and the “AUC of viability dose-response curve” value [2, 5] was 443. The “AUC of viability dose-response curve” value ([3]; HPLM + 10% dialyzed FBS) was 389, the “AUC of viability dose-response curve” value ([3]; RPMI 5 mM glucose + 10% FBS) was 384 and the “AUC of viability dose-response curve” value [3, 5] was 411. For the same compound, the cell viability ([4]; 0.000781 µM) was 109%, the cell viability ([4]; 0.00234 µM) was 125% and the cell viability ([4]; 0.00702 µM) was 114%. The cell viability ([4]; 0.0211 µM) was 137%, the cell viability ([4]; 0.0632 µM) was 126% and the cell viability ([4]; 0.19 µM) was 134%. The cell viability ([4]; 0.569 µM) was 134%, the cell viability ([4]; 1.71 µM) was 125% and the cell viability ([4]; 5.12 µM) was 136%. For the same compound, the cell viability ([4]; 15.4 µM) was 121% and the cell viability ([4]; 46.1 µM) was 84.9%.
In the case of `O=c1cc(-c2ccc(O)c(O)c2)oc2cc(O)cc(O)c12`, the “AUC of viability dose-response curve” value ([1]; HPLM + 10% dialyzed FBS) is reported as 458, the “AUC of viability dose-response curve” value ([1]; RPMI 5 mM glucose + 10% FBS) is reported as 461 and the “AUC of viability dose-response curve” value [1, 5] is reported as 461. For the same compound, the “AUC of viability dose-response curve” value ([2]; HPLM + 10% dialyzed FBS) was 449, the “AUC of viability dose-response curve” value ([2]; RPMI 5 mM glucose + 10% FBS) was 454 and the “AUC of viability dose-response curve” value [2, 5] was 459. The “AUC of viability dose-response curve” value ([3]; HPLM + 10% dialyzed FBS) was 473, the “AUC of viability dose-response curve” value ([3]; RPMI 5 mM glucose + 10% FBS) was 464 and the “AUC of viability dose-response curve” value [3, 5] was 467. It also gave a cell viability ([4]; 0.000781 µM) of 107%, a cell viability ([4]; 0.00234 µM) of 113% and a cell viability ([4]; 0.00702 µM) of 126%. The cell viability ([4]; 0.0211 µM) was 127%, the cell viability ([4]; 0.0632 µM) was 134% and the cell viability ([4]; 0.19 µM) was 134%. It also gave a cell viability ([4]; 0.569 µM) of 142%, a cell viability ([4]; 1.71 µM) of 152% and a cell viability ([4]; 5.12 µM) of 156%. It also gave a cell viability ([4]; 15.4 µM) of 129% and a cell viability ([4]; 46.1 µM) of 129%.

Reference: the supplement of paper PMC11451515
